Reference: PMC2187893 (The Journal of Experimental Medicine, 1990)

Legend:
Type in all cases: cell-based
[1] = test system: human peripheral blood T cells; experiment: Naloxone inhibition of T cell migration to stimuli; conditions: for Effect of naloxone on specific migration (percent response): naloxone-treated/nontreated x 100%; for Specific migration with naloxone / Specific migration without naloxone: spontaneous locomotion subtracted
[2] = test system: human peripheral blood T lymphocytes; experiment: Migration assay with or without concentration gradient
[3] = test system: human peripheral blood T lymphocytes; experiment: T cell migration assay in microchemotaxis chamber; conditions: peptides at 10 -5 M in lower wells, 1.5 h at 37C, Fig. 3; Dunnett's test
[4] = donor 5, stimulus at 10^-5 M, naloxone 10^-5 M
[5] = doses between 10-13 and 10^-9 M, migration only when a gradient existed
[6] = donor 4, stimulus at 10^-9 M, naloxone 10^-5 M

Tyr-Gly-Gly-Phe-Leu [LEU-ENK, leucine-enkephalin]
Effect of naloxone on specific migration (percent response) [1, 4]: 18.4% | Specific migration with naloxone [1, 4]: 582 | Specific migration without naloxone ([1]; donor 5, stimulus at 10^-5 M): 3,171 | type of locomotion stimulated [2, 5]: chemotactic | T cell migration response compared with spontaneous locomotion [3]: stimulatory

cyclic [p-Pen2,n-Pen']-enkephalin [DPDPE]
T cell migration response compared with spontaneous locomotion [3]: greater then spon- taneous locomotion

H-Gly-Gly-Phe-Leu-OH [DesTyr-LEU-ENK]
T cell migration response compared with spontaneous locomotion [3]: no effect on T cell migration

[o-Ala2 ,MePhe4,Gly(ol)'j-enkephalin [DAGO]
T cell migration response compared with spontaneous locomotion [3]: greater then spon- taneous locomotion

/3-END: purified human beta-endorphin from Calbiochem-Behring Corp.; endogenous opioid neurohormone (YGGFMTSEKSQTPLVTLFKNAIIKNAYKKGE; Beta-endorphin; UniProt P01189 237-267, looked up)
T cell migration without gradient (stimulus in upper and lower chambers) ([2]; 10-9, 10^-7 and 10^-5 M, single donor, Fig. 2, p >0.05, NS): equivalent to the spontaneous locomotion | type of locomotion stimulated ([2]; beta-END, Fig. 2, 10^-9 to 10^-5 M): chemotactic

[D-Ser2Leu']- enkephalin Thb [DSLET]
T cell migration response compared with spontaneous locomotion [3]: greater then spon- taneous locomotion

(D-Ala2, o- Leu']-enkephalin [DADLE]
T cell migration response compared with spontaneous locomotion [3]: greater then spon- taneous locomotion

Tyr-Gly-Gly-Phe-Met [MET-ENK, methionine-enkephalin]
Specific migration with naloxone ([1]; donor 4, stimulus at 10- " M, naloxone 10^-5 M): 2 | Specific migration without naloxone ([1]; donor 4, stimulus at 10- " M): 830 | Effect of naloxone on specific migration (percent response) [1, 6]: 12.8% | Specific migration with naloxone [1, 6]: 335 | Effect of naloxone on specific migration (percent response) [1, 4]: 24.8% | Specific migration with naloxone [1, 4]: 768 | Specific migration without naloxone ([1]; donor 5, stimulus at 10^-5 M): 3,093 | type of locomotion stimulated [2, 5]: chemotactic

[n-Ala-2,N-Me-Phe4Met(o)4-01]-enkephalin [FK 33-824]
T cell migration response compared with spontaneous locomotion [3]: greater then spon- taneous locomotion

C=CCN1CC[C@]23c4c5ccc(O)c4O[C@H]2C(=O)CC[C@@]3(O)[C@H]1C5 [naloxone, Naloxone]
effect of naloxone on locomotion caused by IL-2 ([1]; naloxone 10^-5 M, cells pretreated 15 h at 37C, IL-2 100 U/ml, Table 1): no effect | effect of naloxone on T cell migration in response to MET-ENK or LEU-ENK ([1]; naloxone 10^-5 M, cells pretreated 15 h at 37C, Table 1): inhibited
